In series [1] the target is T1, recombinant human GST-Syk (Homo sapiens, UniProt P43405).
T1 construct: purchased Carna Biosciences 08-176
Description: Homogeneous Time-Resolved Fluorescence (HTRF) assay for the recombinant human Syk enzyme. The following applies: ATP 25 μM. The series is classed as biochemical. The gist of the method: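 HTRF read-out, taken 30 min after adding 2 nM europium anti-pTyr antibody plus 70 nM streptavidin-APC in 40 mM EDTA/Tris pH 7.5, detects peptide phosphorylated by GST-tagged human Syk during a 45-min room-temperature reaction.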
In general terms: In TR-FRET formats the signal depends on donor and acceptor labels being close together.

A short description of series [2]: Solubility in biorelevant fasted state simulated intestinal fluid (FaSSIF). The following applies: 25 °C, fassif, kinetic from dmso stock. Type of series: physicochemical. As to the method:
Solubility in Biorelevant Fasted State Simulated Intestinal Fluid (FaSSIF):
A 10 mM DMSO stock solution of compound to be tested is used. A 100 μM standard solution is generated by diluting 2.5 μL of the 10 mM stock solution with 247.5 μL of diluent (10% DMSO/10% MeCN/80% MeOH, v/v/v). A solubility solution is generated by diluting 5 μL of the 10 mM stock solution with 245 μL of FaSSIF (maximum solubility approximately 200 μM). […] The equilibrated solubility solution is filtered by centrifugation (3 minutes at 4000 rpm) using a 0.45 µm filter with a polypropylene membrane. The standard solution and the filtered equilibrated solubility solution are analyzed by HPLC/DAD. The solubility value is calculated by the following equation:
Solubility=(Peak area of sample/Peak area of standard)(Standard concentration)

Setting [3] is: recombinant human GST-Syk 5 pM, read-out: IC50.

pIC50: −log10 of the molar value. Values after ≈ are worked out from the molar mass of the structure shown. Like-named read-outs stand apart in the source and are kept apart here. Some results are limits rather than exact numbers.

The values below come from patent publication US20150299125A1, “PRODRUG BIPYRIDYLAMINOPYRIDINES AS SYK INHIBITORS” (MERCK SHARP & DOHME CORP., priority 2012, published 2015).

Broadly, the pIC50 is the negative decadic logarithm of the IC50, by convention in mol/L. Broadly, the solubility is the concentration that dissolves in the medium under given conditions. Turning to `Cc1cc(Nc2cc(C(F)F)ccn2)nc(-c2ccc([C@](C)(O)[C@H]3CC[C@H](C(=O)OCOC(=O)OCC[S+](C)[O-])CC3)nc2)c1` (single isomer, unassigned) [Example 7-6], the pIC50 in series [1] (setting [3]) was 9.00. In series [2] (Solubility), this compound yielded a solubility of 156 µM (≈ 101 µg/mL).
`Cc1cc(Nc2cc(C(F)F)ccn2)nc(-c2ccc([C@](C)(O)[C@H]3CC[C@H](C(=O)OC4CC5CCC(C4)N5)CC3)nc2)c1` (stereo partly drawn) [Example 1-18, 8-azabicyclo[3.2.1]oct-3-yl trans-4-[(1R)-1-(6-{[4-(difluoromethyl)pyridin-2-yl]amino}-4-methyl-2,3′-bipyridin-6′-yl)-1-hydroxyethyl] cyclohexanecarboxylate]: the negative-log IC50 (pIC50) in series [1] (setting [3]) is 8.57. Besides, the solubility in series [2] (FaSSIF (fasted state simulated intestinal fluid), FaSSIF, equilibrated overnight at 25° C., maximum solubility approximately 200 μM, read-out: Solubility) is 109 µM (≈ 64.5 µg/mL).
With `CC[N+](CC)(CC)COC(=O)[C@H]1CC[C@H]([C@@](C)(O)c2ccc(-c3cc(C)cc(Nc4cc(C(F)F)ccn4)n3)cn2)CC1` [Example 5-10, N-{[({trans-4-[(1R)-1-(6-{[4-(difluoromethyl)pyridin-2-yl]amino}-4-methyl-2,3′-bipyridin-6′-yl)-1-hydroxyethyl]cyclohexyl}carbonyl)oxy]methyl}-N,N-diethylethanaminium], the pIC50 in series [1] (setting [3]) is 8.85. Further, in series [2] (Solubility), the solubility was 138 µM.
As to `CO[C@H]1O[C@H](COC(=O)[C@H]2CC[C@H]([C@@](C)(O)c3ccc(-c4cc(C)cc(Nc5cc(C(F)F)ccn5)n4)cn3)CC2)[C@@H](O)[C@H](O)[C@H]1O` [Example 1-26, methyl 6-O-({trans-4-[(1R)-1-(6-{[4-(difluoromethyl)pyridin-2-yl]amino}-4-methyl-2,3′-bipyridin-6′-yl)-1-hydroxyethyl]cyclohexyl}carbonyl)-alpha-D-glucopyranoside], in series [1] (setting [3]), the pIC50 was 8.39. This compound yielded a solubility in series [2] (Solubility) of 109 µM (≈ 71.8 µg/mL).
`Cc1cc(Nc2cc(C(F)F)ccn2)nc(-c2ccc([C@](C)(O)[C@H]3CC[C@H](C(=O)OC[N+](C)(C)CCOC(=O)c4ccccc4)CC3)nc2)c1` [Example 5-25, N-{[({trans-4-[(1R)-1-(6-{[4-(difluoromethyl)pyridin-2-yl]amino}-4-methyl-2,3′-bipyridin-6′-yl)-1-hydroxyethyl]cyclohexyl}carbonyl)oxy]methyl}-N,N-dimethyl-2-[(phenylcarbonyl)oxy]ethanaminium]: the pIC50 in series [1] (setting [3]) is 9.15. In series [2] (Solubility), this compound yielded a solubility of 155 µM.
Consider `Cc1cc(Nc2cc(C(F)F)ccn2)nc(-c2ccc([C@](C)(O)[C@H]3CC[C@H](C(=O)OC[N+](C)(C)Cc4ccccc4)CC3)nc2)c1` [Example 5-20, N-benzyl[({trans-4-[(1R)-1-(6-{[4-(difluoromethyl)pyridin-2-yl]amino}-4-methyl-2,3′-bipyridin-6′-yl)-1-hydroxyethyl]cyclohexyl}carbonyl)oxy]-N,N-dimethylmethanaminium], for which the pIC50 in series [1] (setting [3]) was 9.10. The compound further showed a solubility in series [2] (Solubility) of 86 µM.
For `CCN(CC)C(=O)N1CC[N+](C)(COC(=O)[C@H]2CC[C@H]([C@@](C)(O)c3ccc(-c4cc(C)cc(Nc5cc(C(F)F)ccn5)n4)cn3)CC2)CC1` [Example 5-12, 4-(diethylcarbamoyl)-1-{[({trans-4-[(1R)-1-(6-{[4-(difluoromethyl)pyridin-2-yl]amino}-4-methyl-2,3′-bipyridin-6′-yl)-1-hydroxyethyl]cyclohexyl}carbonyl)oxy]methyl}-1-methylpiperazin-1-ium] the same measures were above 9.30 and 55 µM.
With `CN[C@H]1CC[C@H](OC(=O)[C@H]2CC[C@H]([C@@](C)(O)c3ccc(-c4cc(C)cc(Nc5cc(C(F)F)ccn5)n4)cn3)CC2)CC1` [Example 1-24, trans-4-(methylamino)cyclohexyl trans-4-[(1R)-1-(6-{[4-(difluoromethyl)pyridin-2-yl]amino}-4-methyl-2,3′-bipyridin-6′-yl)-1-hydroxyethyl] cyclohexanecarboxylate], in series [1] (setting [3]), the pIC50 is 8.46. In series [2] (Solubility), this compound had a solubility of 141 µM (≈ 83.7 µg/mL).
The like results for `Cc1cc(Nc2cc(C(F)F)ccn2)nc(-c2ccc([C@](C)(O)[C@H]3CC[C@H](C(=O)OCCC[S+](C)[O-])CC3)nc2)c1` (stereo partly drawn) [Example 7-4, 3-(methylsulfinyl)propyl trans-4-[(1R)-1-(6-{[4-(difluoromethyl)pyridin-2-yl]amino}-4-methyl-2,3′-bipyridin-6′-yl)-1-hydroxyethyl]cyclohexane carboxylate] were, in that order, 8.37 and 141 µM (≈ 82.7 µg/mL).
For `CSCCCOC(=O)[C@H]1CC[C@H]([C@@](C)(O)c2ccc(-c3cc(C)cc(Nc4cc(C(F)F)ccn4)n3)cn2)CC1` [Example 1-9, 3-(methylsulfanyl)propyl trans-4-[(1R)-1-(6-{[4-(difluoromethyl)pyridin-2-yl]amino}-4-methyl-2,3′-bipyridin-6′-yl)-1-hydroxyethyl] cyclohexanecarboxylate] the same measures were 7.56 and 43 µM (≈ 24.5 µg/mL).
Turning to `CC[N+](CC)(CCCC(C)O)COC(=O)[C@H]1CC[C@H]([C@@](C)(O)c2ccc(-c3cc(C)cc(Nc4cc(C(F)F)ccn4)n3)cn2)CC1` (stereo partly drawn) [Example 5-7, N-{[({trans-4-[(1R)-1-(6-{[4-(difluoromethyl)pyridin-2-yl]amino}-4-methyl-2,3′-bipyridin-6′-yl)-1-hydroxyethyl]cyclohexyl}carbonyl)oxy]methyl}-N,N-diethyl-4-hydroxypentan-1-aminium], the negative-log IC50 (pIC50) in series [1] (setting [3]) was 8.89. The compound further had a solubility in series [2] (Solubility) of 200 µM.
Turning to `CC(=O)C1CC[N+](C)(COC(=O)[C@H]2CC[C@H]([C@@](C)(O)c3ccc(-c4cc(C)cc(Nc5cc(C(F)F)ccn5)n4)cn3)CC2)CC1` (stereo partly drawn) [Example 5-17, 4-acetyl-1-{[({trans-4-[(1R)-1-(6-{[4-(difluoromethyl)pyridin-2-yl]amino}-4-methyl-2,3′-bipyridin-6′-yl)-1-hydroxyethyl]cyclohexyl}carbonyl)oxy]methyl}-1-methylpiperidinium], in series [1] (setting [3]), the negative logarithm of the IC50 (pIC50) is 8.80. In addition, the concentration in solution in series [2] (Solubility) (solubility) came to 45 µM.
The like results for `Cc1cc(Nc2cc(C(F)F)ccn2)nc(-c2ccc([C@](C)(O)[C@H]3CC[C@H](C(=O)OC[N+](C)(C)C(C)C)CC3)nc2)c1` [Example 5-2, N-{[({trans-4-[(1R)-1-(6-{[4-(difluoromethyl)pyridin-2-yl]amino}-4-methyl-2,3′-bipyridin-6′-yl)-1-hydroxyethyl]cyclohexyl}carbonyl)oxy]methyl}-N,N-dimethylpropan-2-aminium] were, in that order, 9.10 and 97 µM.
The like results for `Cc1cc(Nc2cc(C(F)F)ccn2)nc(-c2ccc([C@](C)(O)[C@H]3CC[C@H](C(=O)O[C@H]4CC[C@@H](N)CC4)CC3)nc2)c1` [Example 1-2, cis-4-Aminocyclohexyl trans-4-[(1R)-1-(6-{[4-(difluoromethyl)pyridin-2-yl]amino}-4-methyl-2,3′-bipyridin-6′-yl)-1-hydroxyethyl]cyclohexanecarboxylate] were, in that order, 8.38 and 114 µM (≈ 66.1 µg/mL).
For `Cc1cc(Nc2cc(C(F)F)ccn2)nc(-c2ccc([C@](C)(O)[C@H]3CC[C@H](C(=O)OCOC(=O)CCO)CC3)nc2)c1` [Example 3-9, [(3-hydroxypropanoyl)oxy] methyl trans-4-[(1R)-1-(6-{[4-(difluoromethyl)pyridin-2-yl]amino}-4-methyl-2,3′-bipyridin-6′-yl)-1-hydroxyethyl]cyclohexane carboxylate] the same measures were 8.32 and 160 µM (≈ 93.5 µg/mL).
In the case of `Cc1cc(Nc2cc(C(F)F)ccn2)nc(-c2ccc([C@](C)(O)[C@H]3CC[C@H](C(=O)O)CC3)nc2)c1` [PrepEx 1-5, trans-4-[(1R)-(6-{[4-(Difluoromethyl)pyridin-2-yl]amino}-4-methyl-2,3′-bipyridin-6′-yl)-1-hydroxyethyl]cyclohexanecarboxylic acid], in series [1] (IC50, recombinant human GST-Syk 5 pM), the negative-log IC50 (pIC50) is above 9.30. The solubility in series [2] (Solubility) was below 3 µM.
Regarding `Cc1cc(Nc2cc(C(F)F)ccn2)nc(-c2ccc([C@](C)(O)[C@H]3CC[C@H](C(=O)OCc4nccn4C)CC3)nc2)c1` [Example 1-11, (1-methyl-1H-imidazol-2-yl)methyl trans-4-[(1R)-1-(6-{[4-(difluoromethyl)pyridin-2-yl]amino}-4-methyl-2,3′-bipyridin-6′-yl)-1-hydroxyethyl] cyclohexanecarboxylate], the negative logarithm of the IC50 (pIC50) in series [1] (setting [3]) was 8.68. The same compound came in with a solubility in series [2] (Solubility) of 57 µM (≈ 32.9 µg/mL).
With `Cc1cc(Nc2cc(C(F)F)ccn2)nc(-c2ccc([C@](C)(O)[C@H]3CC[C@H](C(=O)OCC4CCOCC4)CC3)nc2)c1` [Example 1-20, tetrahydro-2H-pyran-4-ylmethyl trans-4-[(1R)-1-(6-{[4-(difluoromethyl)pyridin-2-yl]amino}-4-methyl-2,3′-bipyridin-6′-yl)-1-hydroxyethyl] cyclohexanecarboxylate], the pIC50 in series [1] (setting [3]) is 7.47. For the same compound, the concentration in solution in series [2] (Solubility) (solubility) was 47 µM (≈ 27.3 µg/mL).
As to `Cc1cc(Nc2cc(C(F)F)ccn2)nc(-c2ccc([C@](C)(O)[C@H]3CC[C@H](C(=O)O[C@H]4C[C@H](N)C4)CC3)nc2)c1` [Example 1-19, trans-3-aminocyclobutyl trans-4-[(1R)-1-(6-{[4-(difluoromethyl)pyridin-2-yl]amino}-4-methyl-2,3′-bipyridin-6′-yl)-1-hydroxyethyl] cyclohexanecarboxylate], in series [1] (setting [3]), the pIC50 was 8.36. The compound further registered a solubility in series [2] (Solubility) of 98 µM (≈ 54.1 µg/mL).
